In ChEMBL document CHEMBL5154876, “Design, synthesis and promising anti-tumor efficacy of novel imidazo[1,2-a]pyridine derivatives as potent autotaxin allosteric inhibitors” (Eur J Med Chem, 2022):
Active and inactive are the calls of the source. No cut-off for these calls is given here.

How the values were obtained:
RAW264.7 [1] = experiment: Induction of cell cycle arrest in mouse RAW264.7 cells assessed as accumulation of cells in G1 phase at 0.5 uM incubated for 24 hrs by PI/RNase staining based flow cytometric analysis (RVB = 55.06%); assay type: functional
NCI-H1581 = experiment: Cytotoxicity against human NCI-H1581 cells assessed as inhibition of cell growth incubated for 72 hrs by MTT assay; assay type: functional, cell-based; settings: NCI-H1581, 72 h
RAW264.7 [2] = experiment: Induction of apoptosis in mouse RAW264.7 cells assessed as apoptotic cells by measuring blue fluorescence after 48 hrs by Hoechst33342 staining based fluorescence microscopy; assay type: functional, cell-based; settings: dose 0.1-1 µM, DDE = dose-dependent effect
RAW264.7 [3] = experiment: Induction of cell cycle arrest in mouse RAW264.7 cells assessed as accumulation of cells in G1 phase at 1 uM incubated for 24 hrs by PI/RNase staining based flow cytometric analysis (RVB = 55.06%); assay type: functional
RAW264.7 [4] = experiment: Antimigratory activity against mouse RAW264.7 cells assessed as decrease in cell migration rate measured upto 72 hrs by scratch wound healing assay; assay type: functional, cell-based; settings: DDE = dose-dependent effect
[5] = Acute toxicity in C57BL/6J mouse assessed as mortality at 1000 to 5000 mg/kg measured after 14 days; assay type: organism-based; settings: in vivo, 336 h, dose 1000-5000 mg/kg, time 14 day
NCI-H2228 = experiment: Cytotoxicity against human H2228 cells assessed as inhibition of cell growth incubated for 72 hrs by MTT assay; assay type: functional, cell-based; settings: NCI-H2228, 72 h
A549 = experiment: Cytotoxicity against human A549 cells assessed as inhibition of cell growth incubated for 72 hrs by MTT assay; assay type: functional, cell-based; settings: A549, 72 h
RAW264.7 [6] = experiment: Induction of cell cycle arrest in mouse RAW264.7 cells assessed as accumulation of cells in G2 phase at 0.5 uM incubated for 24 hrs by PI/RNase staining based flow cytometric analysis (RVB = 10.90%); assay type: functional
RAW264.7 [7] = experiment: Induction of cell cycle arrest in mouse RAW264.7 cells assessed as accumulation of cells in G2 phase at 1 uM incubated for 24 hrs by PI/RNase staining based flow cytometric analysis (RVB = 10.90%); assay type: functional
RAW264.7 [8] = experiment: Induction of apoptosis in mouse RAW264.7 cells assessed as necrotic cells at 0.25 uM after 48 hrs by Annexin V-FITC/PI based flow cytometric analysis (RVB=0.26%); assay type: functional
MCF7 = experiment: Cytotoxicity against human MCF-7 cells assessed as inhibition of cell growth incubated for 72 hrs by MTT assay; assay type: functional, cell-based; settings: MCF7, 72 h
RAW264.7 [9] = experiment: Induction of cell cycle arrest in mouse RAW264.7 cells assessed as accumulation of cells in G2 phase at 0.1 uM incubated for 24 hrs by PI/RNase staining based flow cytometric analysis (RVB = 10.90%); assay type: functional
RAW264.7 [10] = experiment: Cytotoxicity against mouse RAW264.7 cells assessed as inhibition of cell growth incubated for 72 hrs by MTT assay; assay type: functional, cell-based; settings: RAW264.7, 72 h
RAW264.7 [11] = experiment: Induction of apoptosis in mouse RAW264.7 cells assessed as viable cells at 0.1 uM after 48 hrs by Annexin V-FITC/PI based flow cytometric analysis (RVB=94.1%); assay type: functional; settings: read-out: Activity
RAW264.7 [12] = experiment: Induction of apoptosis in mouse RAW264.7 cells assessed as necrotic cells at 0.1 uM after 48 hrs by Annexin V-FITC/PI based flow cytometric analysis (RVB=0.26%); assay type: functional
RAW264.7 [13] = experiment: Induction of cell cycle arrest in mouse RAW264.7 cells assessed as accumulation of cells in S phase at 1 uM incubated for 24 hrs by PI/RNase staining based flow cytometric analysis (RVB = 34.03%); assay type: functional
RAW264.7 [14] = experiment: Induction of apoptosis in mouse RAW264.7 cells assessed as viable cells at 1 uM after 48 hrs by Annexin V-FITC/PI based flow cytometric analysis (RVB=94.1%); assay type: functional; settings: read-out: Activity
RAW264.7 [15] = experiment: Induction of apoptosis in mouse RAW264.7 cells assessed as late apoptotic cells at 0.1 uM after 48 hrs by Annexin V-FITC/PI based flow cytometric analysis (RVB=0.098%); assay type: functional
Autotaxin = Autotaxin (Homo sapiens, UniProt Q13822); experiment: Negative allosteric modulation activity against human ATX using FS-3 as substrate preincubated for 45 mins followed by substrate addition and measured every 30 mins by multi-mode microplate reader
[16] = Acute toxicity in C57BL/6J mouse assessed as secretion in eye corner at 5000 mg/kg measured after 14 days; assay type: organism-based; settings: in vivo, 336 h, time 14 day
RAW264.7 [17] = experiment: Induction of cell cycle arrest in mouse RAW264.7 cells assessed as accumulation of cells in G1 phase at 0.25 uM incubated for 24 hrs by PI/RNase staining based flow cytometric analysis (RVB = 55.06%); assay type: functional
RAW264.7 [18] = experiment: Inhibition of colony formation in mouse RAW264.7 cells incubated for 72 hrs by crystal violet staining method; assay type: functional, cell-based; settings: dose 0.1-1 µM, DDE = dose-dependent effect
RAW264.7 [19] = experiment: Induction of apoptosis in mouse RAW264.7 cells assessed as necrotic cells at 0.5 uM after 48 hrs by Annexin V-FITC/PI based flow cytometric analysis (RVB=0.26%); assay type: functional
Hep 3B2 = experiment: Cytotoxicity against human Hep3B cells assessed as inhibition of cell growth incubated for 72 hrs by MTT assay; assay type: functional, cell-based
RAW264.7 [20] = experiment: Induction of apoptosis in mouse RAW264.7 cells assessed as viable cells at 0.5 uM after 48 hrs by Annexin V-FITC/PI based flow cytometric analysis (RVB=94.1%); assay type: functional; settings: read-out: Activity
RAW264.7 [21] = experiment: Induction of apoptosis in mouse RAW264.7 cells assessed as viable cells at 0.25 uM after 48 hrs by Annexin V-FITC/PI based flow cytometric analysis (RVB=94.1%); assay type: functional; settings: read-out: Activity
RAW264.7 [22] = experiment: Induction of apoptosis in mouse RAW264.7 cells assessed as early apoptotic cells at 0.5 uM after 48 hrs by Annexin V-FITC/PI based flow cytometric analysis (RVB=5.57%); assay type: functional
RAW264.7 [23] = experiment: Inhibition of colony formation in mouse RAW264.7 cells assessed as reduction in colony count at 0.1 to 1 uM incubated for 72 hrs by crystal violet staining method; assay type: functional, cell-based; settings: dose 0.1-1 µM
RAW264.7 [24] = experiment: Induction of apoptosis in mouse RAW264.7 cells assessed as late apoptotic cells at 0.25 uM after 48 hrs by Annexin V-FITC/PI based flow cytometric analysis (RVB=0.098%); assay type: functional
RAW264.7 [25] = experiment: Induction of apoptosis in mouse RAW264.7 cells assessed as apoptotic cells measured after 48 hrs by acridine orange/ethidium bromide staining based fluorescence microscopy; assay type: functional, cell-based; settings: dose 0.1-1 µM, DDE = dose-dependent effect
RAW264.7 [26] = experiment: Induction of cell cycle arrest in mouse RAW264.7 cells assessed as accumulation of cells in S phase at 0.25 uM incubated for 24 hrs by PI/RNase staining based flow cytometric analysis (RVB = 34.03%); assay type: functional
RAW264.7 [27] = experiment: Induction of cell cycle arrest in mouse RAW264.7 cells assessed as accumulation of cells in G1 phase at 0.1 uM incubated for 24 hrs by PI/RNase staining based flow cytometric analysis (RVB = 55.06%); assay type: functional
RAW264.7 [28] = experiment: Induction of apoptosis in mouse RAW264.7 cells assessed as early apoptotic cells at 1 uM after 48 hrs by Annexin V-FITC/PI based flow cytometric analysis (RVB=5.57%); assay type: functional

CCc1nc2c(C)cc(-c3ccc(CN4CCN(CCO)CC4)cc3)cn2c1NC(=O)OCc1cc(Cl)cc(Cl)c1
Activity (RAW264.7 [1]): 21.13% | IC50 (NCI-H1581): 4.76 µM | Activity (RAW264.7 [2]): Dde | Activity (RAW264.7 [3]): 7.22% | Activity (RAW264.7 [4]): Dde | Activity [5]: Non-Toxic | IC50 (NCI-H2228): 4.27 µM | IC50 (A549): 6.59 µM | Activity (RAW264.7 [6]): 74.09% | Activity (RAW264.7 [7]): 90.16% | Activity (RAW264.7 [8]): 0.28% | IC50 (MCF7): 3.87 µM | Activity (RAW264.7 [9]): 59.56% | IC50 (RAW264.7 [10]): 0.63 µM | viability at 0.1 µM (RAW264.7 [11]): 92.8% | Activity (RAW264.7 [12]): 0.68% | Activity (RAW264.7 [13]): 2.63% | viability at 1 µM (RAW264.7 [14]): 90% | Activity (RAW264.7 [15]): 0.44% | IC50 (Autotaxin): 0.0034 µM | Activity [16]: Toxic | Activity (RAW264.7 [17]): 10.61% | inhibition (RAW264.7 [18]): Dde | Activity (RAW264.7 [19]): 1.03% | IC50 (Hep 3B2): 0.58 µM | viability at 0.5 µM (RAW264.7 [20]): 90.4% | viability at 0.25 µM (RAW264.7 [21]): 92% | Activity (RAW264.7 [22]): 7.65% | inhibition (RAW264.7 [23]): Active | Activity (RAW264.7 [24]): 1.73% | Activity (RAW264.7 [25]): Dde | Activity (RAW264.7 [26]): 18.57% | Activity (RAW264.7 [27]): 14.72% | Activity (RAW264.7 [28]): 8.43%
